Source: patent US9567318B2, “Substituted pyrimidine compounds and uses thereof” (Memorial Sloan-Kettering Cancer Center, priority 2009, dated 2017)

Key:
[1] = test system: PBLs, CCD18Co and MRC-5 normal cells; experiment: Cytotoxicity in normal cells; assay type: cell-based
Experimental: FIG. 14. YK5 has a higher affinity for tumor Hsp70s and selectively kills cancer cells. (a-c) Cells were treated with the indicated concentrations of inhibitors for the times presented, and metabolically viable cells by Alamar blue uptake as described in Methods (a). Molecular markers of apoptosis (PARP and caspase-3 cleavage) were analyzed in cells treated for 24 h with indicated concentrations of inhibitors, by western blotting (b, c). Morphology of cells treated for 24 h with vehicle or the indicated inhibitors was analyzed by light microscopy (c). […]
Because Hsp70 assists in house-keeping functions of normal cells, such as folding of newly synthesized polypeptides, refolding of misfolded proteins, and translocation of proteins through biological membranes, it remains unclear whether pharmacologic interventions which target both Hsp70 and Hsc70 isoforms, such as YK5, are non-toxic to these cells. To address this matter, the cytotoxic effect of YK5 in a panel of normal cells was evaluated, namely peripheral blood leukocytes (PBLs) obtained from healthy blood donors, and cultured normal fibroblasts, such as the colon cells CCD18Co and the lung MRC-5 (FIG. 14a-c). […]
Growth Inhibition Assay. Antiproliferative effects of inhibitors were evaluated using the dye Alamar blue. […]

[2] = test system: Hsp70s expressed in the MRC-5 cells; experiment: Hsp70 competition assay using YK55 beads, MRC-5 extracts; assay type: binding, human; settings: MRC-5 normal cell extracts
Experimental: (§1) FIG. 14. YK5 has a higher affinity for tumor Hsp70s and selectively kills cancer cells. (a-c) Cells were treated with the indicated concentrations of inhibitors for the times presented, and metabolically viable cells by Alamar blue uptake as described in Methods (a). Molecular markers of apoptosis (PARP and caspase-3 cleavage) were analyzed in cells treated for 24 h with indicated concentrations of inhibitors, by western blotting (b, c). Morphology of cells treated for 24 h with vehicle or the indicated inhibitors was analyzed by light microscopy (c). (d) Extracts (500 μg) were incubated overnight with beads containing D-biotin (75 μM) or the indicated concentrations of YK55 added to 50 μl streptavidin beads. HS=heat shocked. (e) SKBr3 (200 μg) and MRC-5 (400 μg) extracts and recombinant human Hsp70 (2 μg) were incubated for 3 h with the indicated concentrations with YK5, followed by precipitation of Hsp70 complexes on YK55-beads (50 μM YK55 added to 50 μl streptavidin beads). Data obtained from three independent experiments were graphed (right). Points, mean; bars, s.d.
(§2) In a second experiment, the ability of soluble YK5 to compete YK55-binding to normal and cancer cell Hsp70 species were tested (FIG. 14e). […] Interaction of YK5 was even weaker with recombinant human Hsp70 (FIG. 14e).
(§3) Hsp70 Competition Assay Using the YK55 Beads. […]

[3] = target: T1, recombinant human Hsp70 (Homo sapiens, UniProt P0DMV8); experiment: Hsp70 competition assay using YK55 beads, recombinant protein; assay type: binding; settings: compared with MRC-5 Hsp70s
T1 construct: purchased Stressgen
Experimental: as §1, §2, §3

T1 sequence (P0DMV8 whole entry): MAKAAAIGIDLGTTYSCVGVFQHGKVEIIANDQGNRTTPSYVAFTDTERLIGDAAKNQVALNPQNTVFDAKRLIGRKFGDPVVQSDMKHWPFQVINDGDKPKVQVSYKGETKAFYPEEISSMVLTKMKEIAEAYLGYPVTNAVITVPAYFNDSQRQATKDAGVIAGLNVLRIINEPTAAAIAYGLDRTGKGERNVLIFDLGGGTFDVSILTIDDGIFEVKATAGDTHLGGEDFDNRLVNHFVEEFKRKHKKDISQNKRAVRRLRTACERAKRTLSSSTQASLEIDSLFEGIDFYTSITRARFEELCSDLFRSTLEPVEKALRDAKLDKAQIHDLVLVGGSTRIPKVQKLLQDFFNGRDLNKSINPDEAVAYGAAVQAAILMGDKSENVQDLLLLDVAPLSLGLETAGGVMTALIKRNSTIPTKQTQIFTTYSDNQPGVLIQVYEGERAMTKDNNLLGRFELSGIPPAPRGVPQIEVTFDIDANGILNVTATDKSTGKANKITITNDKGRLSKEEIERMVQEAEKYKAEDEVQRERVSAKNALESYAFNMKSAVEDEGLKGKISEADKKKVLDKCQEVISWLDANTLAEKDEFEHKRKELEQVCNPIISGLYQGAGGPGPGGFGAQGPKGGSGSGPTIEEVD

C=CC(=O)Nc1cc(N)nc(Sc2c(OC)nc(N3CCN(C)CC3)nc2OC)n1 [YK5, N-(6-amino-2-(4,6-dimethoxy-2-(4-methylpiperazin-1-yl)pyrimidin-5-ylthio)pyrimidin-4-yl)acrylamide]
cell death in normal cells [1]: minimal | concentration necessary to observe displacement of Hsp70s from YK55-beads [2]: exceeded 200 μM | interaction with recombinant human Hsp70 [3]: even weaker
